Experimental data: patent US20080182865A1, “HISTONE DEACETYLASE INHIBITORS SENSITIZE CANCER CELLS TO EPIDERMAL GROWTH FACTOR INHIBITORS” (priority 2005, published 2008)

Assays:
A549 NSCLC cell line = assay: Apoptosis and cell death (cell cycle analysis); format: cell-based, human; details: 10 μM
Method: (§1) The effect of gefitinib on inducing apoptosis and cell death in NSCLC cell lines sensitive and resistant to gefitinib was evaluated. […].

Calu3 NSCLC cell line = assay: Apoptosis and cell death (cell cycle analysis); format: cell-based, human; details: 10 μM
Method: as §1

H322 NSCLC cell line = assay: Apoptosis and cell death (cell cycle analysis); format: cell-based, human; details: 10 μM
Method: as §1

H3255 NSCLC cell line = assay: Apoptosis and cell death (cell cycle analysis); format: cell-based, human; details: 10 μM
Method: as §1

H358 NSCLC cell line = assay: Apoptosis and cell death (cell cycle analysis); format: cell-based, human; details: 10 μM
Method: as §1

H157 NSCLC cell line = assay: Apoptosis and cell death (cell cycle analysis); format: cell-based, human; details: 10 μM
Method: (§2) The effect of gefitinib on inducing apoptosis and cell death in NSCLC cell lines sensitive and resistant to gefitinib was evaluated.

H460 NSCLC cell line = assay: Apoptosis and cell death (cell cycle analysis); format: cell-based, human; details: 10 μM
Method: as §2

H520 NSCLC cell line = assay: Apoptosis and cell death (cell cycle analysis); format: cell-based, human; details: 10 μM
Method: as §2

NSCLC patients = details: cited from earlier work; for response rate: single agent, phase I studies, chemotherapy resistant NSCLC patients
E-cad [1] = assay: E-cad expression after MS-275 in gefitinib-resistant NSCLC cell lines; format: cell-based, human; details: 24 hours after treatment with 4 or 10 μM
[2] = in vivo; cited from earlier work
E-cad [3] = details: lung cancer cell lines; cited from earlier work
[4] = unselected gefitinib treated NSCLC patients

Q: Which “apoptosis and cell death” value (A549 NSCLC cell line) does the source give for COc1cc2ncnc(Nc3ccc(F)c(Cl)c3)c2cc1OCCCN1CCOCC1 [gefitinib] here?
A: The value was “no apoptotic or necrotic effect”.

Q: What about the “increase in apoptosis and cell death” value (Calu3 NSCLC cell line) of the same compound?
A: The value was 2.3-3.4 fold.

Q: What about the “increase in apoptosis and cell death” value (H322 NSCLC cell line) of the same compound?
A: The value was 2.3-3.4 fold.

Q: What about the “increase in apoptosis and cell death” value (H3255 NSCLC cell line) of the same compound?
A: The value was 35 fold.

Q: And the “increase in apoptosis and cell death” value (H358 NSCLC cell line)?
A: Its value is 2.3-3.4 fold.

Q: And the “apoptosis and cell death” value (H157 NSCLC cell line)?
A: The value was “no apoptotic or necrotic effect”.

Q: And the “apoptosis and cell death” value (H460 NSCLC cell line)?
A: Its value is “no apoptotic or necrotic effect”.

Q: What about the “apoptosis and cell death” value (H520 NSCLC cell line) of the same compound?
A: The value was “no apoptotic or necrotic effect”.

Q: What about the response rate (NSCLC patients) of the same compound?
A: The response rate was “about 10%”.

Q: And the objective response (NSCLC patients; [4])?
A: Its objective response is “up to 18%”.

Q: And the symptomatic improvement (NSCLC patients; [4])?
A: Its symptomatic improvement is 40%.

Q: What does the source list for Nc1ccccc1NC(=O)c1ccc(CNC(=O)OCc2cccnc2)cc1 [MS-275]?
A: upregulation of E-cad expression (E-cad [1]; H157): Eight to twelve; upregulation of E-cad expression (E-cad [1]; H460): Eight to twelve; upregulation of E-cad expression (E-cad [1]; H520): Eight to twelve; half-life [2]: 100 h; persistence of changes in histone acetylation following administration [2]: several weeks

Q: Which “effect on E-cad” value (E-cad [3]) does the source give for CC(/C=C/C(=O)NO)=C\[C@@H](C)C(=O)c1ccc(N(C)C)cc1 [TSA, trichostatin A] here?
A: Its value is “activation of E-cad”.

Q: With C#Cc1cccc(Nc2ncnc3cc(OCCOC)c(OCCOC)cc23)c1 [erlotinib] as the compound, how does the survival (NSCLC patients; second or third line therapy, National Cancer Institute Canada trial) read?
A: Its survival is “survival benefit”.

Q: And the response rate (NSCLC patients)?
A: The response rate was “about 10%”.
